{
  "source": "paper PMC9482650",
  "about": "“Quantitative fragmentomics allow affinity mapping of interactomes” (Nature Communications, 2022)",
  "key": {"CASK": {"test_system": "CASK", "assay": "PBM-AP-MS from HaCat extract", "assay_type": "binding, Homo sapiens", "details": "prey CASK (O14936), PBM bait vs biotin control (Biot03)"}, "MPP5 [1]": {"test_system": "MPP5", "assay": "PBM-AP-MS from Jurkat extract", "assay_type": "binding, Homo sapiens", "details": "prey MPP5 (Q8N3R9), PBM bait vs biotin control", "text": "Supplement 41467_2022_33018_MOESM5_ESM.xlsx, sheet \"Jurkat HPV59-E6\" | column: -LOG(P-Value); Difference log2; Ratio HPV59/biot"}, "DLG1": {"test_system": "DLG1", "assay": "PBM-AP-MS from Jurkat extract", "assay_type": "binding, Homo sapiens", "details": "Jurkat extract; prey DLG1 (Q12959); PBM bait vs biotin control", "experimental": "(§1) For PBM-AP-MS experiments, 30 μl streptavidin resin was mixed with biotin or peptide at 50–60 μM concentration in 6–6.5 resin volume for 60 min to achieve resin saturation. For PDZ-AP-MS experiments, 30 μl streptavidin resin was mixed with biotinylated MBP or MBP-PDZ at 40-50 μM concentration in >1000× resin volume for 60 min to achieve resin saturation. After saturation, resins were washed a single time (ten resin volume, holdup buffer), and were depleted with biotin (1 mM biotin, 5–10 resin volume, 10 min). Finally, resins were washed two times. 0.5 ml 2 mg/ml cell lysate was added to the dry resin (1 mg total input) and were incubated at 4 °C for 2 h. Then, the beads were washed three times with 10 resin volume buffer containing: 50 mM TRIS pH 8.5, 150 mM NaCl, 1% TritonX-100, 10× complete EDTA-free protease inhibitor cocktail, 2 mM EDTA, 1 mM TCEP. Then, the beads were washed two times with ten resin volume buffer containing: 50 mM TRIS pH 8.5, 150 mM NaCl, 1 mM TCEP. Finally, captured protein was eluted from the resin in two steps and the eluted fractions were pooled. For each elution the beads were incubated for 30 min with three resin volume buffer containing: 20 mM TRIS pH8.5, 100 mM NaCl, 500 μM TCEP, 8 M Urea. Between each step, the beads were separated by mild centrifugation and the supernatant was removed by gentle pipetting.\n(§2) Proteins were identified by database searching using SequestHT (Thermo Fisher Scientific) with Proteome Discoverer 2.4 software (PD2.4, Thermo Fisher Scientific) on human FASTA database downloaded from SwissProt (reviewed, release 2020_11_27, 20304 entries, https://www.uniprot.org/). Precursor and fragment mass tolerances were set at 7 ppm and 0.6 Da respectively, and up to two missed cleavages were allowed. Oxidation (M, +15.995 Da) was set as variable modification, and Carbamidomethylation (C, +57.021 Da) as fixed modification. Peptides and proteins were filtered with a false discovery rate at 1%. Label-free quantification was based on the extracted ion chromatography intensity of the peptides. All samples were measured in technical triplicates. The measured extracted ion chromatogram (XIC) intensities were normalized based on median intensities of the entire dataset to correct minor loading differences. For statistical tests and enrichment calculations, not detectable intensity values were treated with an imputation method, where the missing values were replaced by random values similar to the 10% of the lowest intensity values present in the entire dataset. Unpaired two-tailed T-test, assuming equal variance, were performed on obtained log2 XIC intensities. The detection threshold for enriched proteins in AP-MS experiments were analyzed above twofold enrichment with <0.01 P value. Then, proteins with PDZ-domains or PBMs were extracted from the list of enriched proteins. In case only a specific isoform of the detected protein contains a PBM, the identified peptide fragments were manually checked to check which isoform(s) were most likely detected. All raw LC-MS/MS data (from 165 runs) have been deposited to the ProteomeXchange via the PRIDE database with identifier PXD027743."}, "SCRIB": {"test_system": "SCRIB", "assay": "PBM-AP-MS from Jurkat extract", "assay_type": "binding, Homo sapiens", "details": "Jurkat extract; prey SCRIB (Q14160); PBM bait vs biotin control", "experimental": "as §1, §2"}, "MAGI1": {"test_system": "MAGI1", "assay": "PBM-AP-MS from Jurkat extract", "assay_type": "binding, Homo sapiens", "details": "Jurkat extract; prey MAGI1 (Q96QZ7); PBM bait vs biotin control", "experimental": "as §1, §2"}, "LIN7C [2]": {"test_system": "LIN7C", "assay": "PBM-AP-MS from Jurkat extract", "assay_type": "binding, Homo sapiens", "details": "Jurkat extract; prey LIN7C (Q9NUP9); PBM bait vs biotin control", "experimental": "as §1, §2"}, "LIN7C [3]": {"test_system": "LIN7C", "assay": "PBM-AP-MS from HaCat extract", "assay_type": "binding, Homo sapiens", "details": "prey LIN7C (Q9NUP9), PBM bait vs biotin control (Biot03)"}, "MPP7": {"test_system": "MPP7", "assay": "PBM-AP-MS from HaCat extract", "assay_type": "binding, Homo sapiens", "details": "prey MPP7 (Q5T2T1), PBM bait vs biotin control (Biot03)"}, "MPP5 [4]": {"test_system": "MPP5", "assay": "PBM-AP-MS from HaCat extract", "assay_type": "binding, Homo sapiens", "details": "prey MPP5 (Q8N3R9), PBM bait vs biotin control (Biot03)", "text": "(§3) Supplement 41467_2022_33018_MOESM5_ESM.xlsx, sheet \"HaCat HPV59-E6\" | column: -LOG(P-value); Difference log2; Ratio HPV59E6/Biot03"}, "MAGI3": {"test_system": "MAGI3", "assay": "PBM-AP-MS from HaCat extract", "assay_type": "binding, Homo sapiens", "details": "prey MAGI3 (Q5TCQ9), PBM bait vs biotin control (Biot03)", "text": "as §3"}, "HaCat cell extract preys": {"test_system": "HaCat cell extract preys", "assay": "PDZ-AP-MS, biotinylated MBP-PDZ baits", "assay_type": "binding, human", "experimental": "(§4) For PDZ-AP-MS experiments, PDZ domains were cloned as His6-AviTag-MBP-PDZ constructs. For co-expression with BirA, E. coli BL21(DE3) cells were co-transformed with His6-AviTag-MBP, or His6-AviTag-MBP-PDZ-coding and PET21a-BirA (Addgene #20857) plasmids. Simultaneously to IPTG induction, 50 µM biotin was added to the media. After cell harvesting, the lysis buffer was also supplemented with 50 µM biotin. Otherwise, expression and double affinity purification was identical as previously described in details.\nas §1\n(§5) The samples were precipitated with TCA 20% overnight at 4 °C and centrifuged at 14,000 rpm for 10 min at 4 °C. The protein pellets were washed twice with 1 mL cold acetone and air dried. The protein extracts were solubilized in urea 8 M, reduced with 5 mM TCEP for 30 min, and alkylated with 10 mM iodoacetamide for 30 min in the dark. Double digestion was performed at 37 °C with 500 ng endoproteinase Lys-C for 4 h, followed by fourfold dilution and an overnight digestion with 500 ng trypsin. Peptide mixtures were then desalted on C18 spin-column and dried on Speed-Vacuum.\n(§6) Samples were analyzed using an Ultimate 3000 nano-RSLC (Thermo Scientific, San Jose California) coupled in line with a LTQ-Orbitrap ELITE mass spectrometer via a nano-electrospray ionization source (Thermo Scientific, San Jose California). […]"}, "[5]": {"test_system": "Jurkat cell extract preys", "assay": "PDZ-AP-MS, biotinylated MBP-PDZ baits", "assay_type": "binding, human", "experimental": "as §4, §1, §5, §6"}, "MAGI1_2 PDZ": {"target": "MAGI1_2 PDZ (Homo sapiens, UniProt Q96QZ7)", "sequence (Q96QZ7 472-554 limits assumed)": "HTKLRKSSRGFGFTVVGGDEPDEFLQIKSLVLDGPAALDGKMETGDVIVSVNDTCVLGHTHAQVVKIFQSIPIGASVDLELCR", "assay": "Competitive fluorescence polarization (FP) assay", "assay_type": "binding", "details": "read-out: pKd FP (converted)", "experimental": "In direct fluorescence polarization assay, the fluorophore label can interfere with affinity determination and can cause large experimental bias. For this reason, affinities were determined with competitive FP measurements where the bound fluorescent peptide is chased out by increasing concentration of unlabeled competitor. In the fitting procedure, affinities of both peptides are considered. Each PDZ-domain was first tested with labeled peptides in direct experiments and then optimal labeled peptides were used in competitive experiments.\nDouble affinity-purified His6-MBP-PDZ were used for affinity measurements by FP. Fluorescence polarization was measured with a PHERAstar microplate reader by using 485 ± 20 nm and 528 ± 20 nm band-pass filters for excitation and emission, respectively. […] In total, the polarization of the probe was measured at eight different protein concentrations (whereas one contained no protein and corresponded to the free peptide). […] The dissociation constants of the direct and competitive FP experiments were obtained by fitting the measured direct data with a quadratic binding equation first and by fitting the measured competitive data with a competitive equation, using several obtained parameters from the first fit[71]. In part, competitive fluorescence polarization data were taken from refs. [22],[21]. […]"}, "SYNJ2BP PDZ": {"target": "SYNJ2BP PDZ (Homo sapiens, UniProt P57105)", "sequence (P57105 13-100 limits assumed)": "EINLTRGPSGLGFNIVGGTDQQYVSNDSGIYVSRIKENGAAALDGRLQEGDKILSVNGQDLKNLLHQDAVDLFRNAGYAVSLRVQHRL", "assay": "Holdup assay", "assay_type": "binding"}},
  "note": "Primed or numbered codes have the meaning given here. Ends that are not written are not given here. * marks the point of attachment. Biotin = O=C1N[C@H]2[C@H](CS[C@H]2CCCCC(=O)*)N1; ttds″ = trioxatridecan-succinamic acid linker",
  "data": [
    {"compound": "HPV59-E6 ({Biotin-ttds″}-QRQARSETLV)", "values": [
      {"measurement": "Difference log2", "setting": "CASK", "value": 7.278},
      {"measurement": "Ratio bait/Biot03", "setting": "CASK", "value": 155.163},
      {"measurement": "Difference log2", "setting": "MPP5 [1]", "value": 4.755},
      {"measurement": "Ratio bait/biot", "setting": "MPP5 [1]", "value": 26.9941},
      {"measurement": "Difference log2", "setting": "DLG1", "value": 9.078},
      {"measurement": "Ratio bait/biot", "setting": "DLG1", "value": 540.448},
      {"measurement": "Difference log2", "setting": "SCRIB", "value": 4.363},
      {"measurement": "Ratio bait/biot", "setting": "SCRIB", "value": 20.5739},
      {"measurement": "Difference log2", "setting": "MAGI1", "value": 6.509},
      {"measurement": "Ratio bait/biot", "setting": "MAGI1", "value": 91.0533},
      {"measurement": "Difference log2", "setting": "LIN7C [2]", "value": 5.541},
      {"measurement": "Ratio bait/biot", "setting": "LIN7C [2]", "value": 46.5688},
      {"measurement": "Difference log2", "setting": "LIN7C [3]", "value": 8.47},
      {"measurement": "Ratio bait/Biot03", "setting": "LIN7C [3]", "value": 354.524},
      {"measurement": "Difference log2", "setting": "MPP7", "value": 5.592},
      {"measurement": "Ratio bait/Biot03", "setting": "MPP7", "value": 48.2208},
      {"measurement": "Difference log2", "setting": "MPP5 [4]", "value": 3.6952},
      {"measurement": "Ratio bait/Biot03", "setting": "MPP5 [4]", "value": 12.9528},
      {"measurement": "Difference log2", "setting": "MAGI3", "value": 2.908},
      {"measurement": "Ratio bait/Biot03", "setting": "MAGI3", "value": 7.505}
    ]},
    {"compound": "EXOC1", "values": [
      {"measurement": "Difference log2", "setting": "HaCat cell extract preys; bait DLG1_2 PDZ vs MBP, enrichment of prey", "value": 4.458},
      {"measurement": "Ratio DLG1_2/MBP", "setting": "HaCat cell extract preys; bait DLG1_2 PDZ, fold change of prey", "value": 21.9853}
    ]},
    {"compound": "ANXA2", "values": [
      {"measurement": "Difference log2", "setting": "[5]; bait SCRIB_2 PDZ vs MBP, enrichment of prey", "value": 5.895},
      {"measurement": "Ratio SCRIB_2/MBP", "setting": "[5]; bait SCRIB_2 PDZ, fold change of prey", "value": 59.5253}
    ]},
    {"compound": "CC(C)C[C@H](NC(=O)[C@H](CCC(N)=O)NC(=O)[C@@H](NC(=O)[C@H](CCC(=O)O)NC(=O)[C@H](CCCNC(=N)N)NC(=O)[C@H](CCCNC(=N)N)NC(=O)[C@@H](NC(=O)[C@H](CCCNC(=N)N)NC(=O)[C@H](CO)NC(=O)[C@H](CO)NC(=O)CCC(=O)NCCCOCCOCCOCCCNC(=O)CCCC[C@@H]1SC[C@@H]2NC(=O)N[C@@H]21)[C@@H](C)O)[C@@H](C)OP(=O)(O)O)C(=O)O", "note": "[HPV16-E6_-2P]", "values": [
      {"measurement": "Kd", "setting": "MAGI1_2 PDZ", "value": 2520, "unit": "µM"}
    ]},
    {"compound": "CC(C)C[C@H](NC(=O)[C@H](CCC(N)=O)NC(=O)[C@@H](NC(=O)[C@H](CCC(=O)O)NC(=O)[C@H](CCCNC(=N)N)NC(=O)[C@H](CCCNC(=N)N)NC(=O)[C@@H](NC(=O)[C@H](CCCNC(=N)N)NC(=O)[C@H](CO)NC(=O)[C@@H](N)CO)[C@@H](C)O)[C@@H](C)O)C(=O)O", "note": "[HPV16E6]", "values": [
      {"measurement": "Kd", "setting": "SYNJ2BP PDZ", "value": 6.56, "unit": "µM"}
    ]}
  ]
}
